Values of other authors as cited in patent US8501717B2, “Methods to treat and/or prevent mucositis” (Merck, Sharp & Dohme Corp., priority 2007, dated 2013).

Conditions: less than the effect of an equal dose of calcitriol

## C=C1/C(=C\C=C2/CCC[C@]3(C)C([C@H](C)CC#CC(C)(C)O)=CC[C@@H]23)C[C@@H](O)C[C@@H]1O [Ro23-7553]
  hypercalcemic effect compared to calcitriol (in words): reduced hypercalcemic effect
